Assay results: article PMC2943923, “Human Integrin α3β1 Regulates TLR2 Recognition of Lipopeptides from Endosomal Compartments” (PLoS ONE, 2010)

Tests used:
U937 macrophages [1] = assay: IL-6 secretion (ELISA) of U937 macrophages stimulated with Pam3CSK4; format: cell-based, human; conditions: 100 ng/ml Pam3CSK4, 6 hours; for decrease in Pam3CSK4-induced IL-6 secretion relative to control cells: 100 ng/ml concanamycin A, p = 0.037; for decrease in Pam3CSK4-induced IL-6 secretion relative to control cells / mean secretion of IL-6 by inhibitor-treated cells: 500 µM bafilomycin A1, 1 µM monensin, 5 µM CPZ; for mean secretion of IL-6 by inhibitor-treated cells: inhibitor added 30 minutes before: 100 ng/ml concanamycin A
Experimental: (§1) The human monocyte cell line U937 (American Type Culture Collection) was maintained in RPMI (Mediatech) with 10% FBS and 1% penicillin-streptomycin. For all experiments, U937 monocytes were differentiated at a concentration of 5×10^5 cells per well in 24-well plates with 100 nM phorbol 12-myristate 13-acetate (Sigma) for 48 hours. All experiments were performed under serum-free conditions, unless otherwise noted.
The TLR2/1 triacylated lipid ligand, Pam3CSK4 (Invivogen), biotinylated Pam3CSK4 (Axxora) or Pam3CSK4-rhodamine (Invivogen) were resuspended in endotoxin-free water. Pam3CSK4 was used at a concentration of 100 ng/ml to stimulate macrophages, and Pam3CSK4-biotin and Pam3CSK4-rhodamine were used at indicated concentrations.
Inhibition of endosomal acidification was achieved using inhibitors of V-ATPase, concanamycin A (100 ng/ml) and bafilomycin A1 (500 µM) (Sigma) or the ionophore monensin (1 µM) (Sigma). Clathrin-mediated endocytosis was inhibited with chlorpromazine (CPZ) (5 µM) (Sigma). Concentrations were chosen based on prior studies, [61]. All inhibitors were added 30 minutes prior to stimulation. For CPZ experiments, the media was replaced at the time of stimulation to remove CPZ. […]
Supernatants were collected 6 hours post stimulation. IL-6 and TNF-α were measured using the DuoSet enzyme linked immunoabsorbent assay (ELISA) kit (R&D systems) following the manufacturer's instructions.

U937 macrophages [2] = assay: IL-6 transcript (qRT-PCR) in B. burgdorferi-stimulated U937 macrophages; format: cell-based, human; conditions: 1 µM monensin; B. burgdorferi MOI 10, 6 hours, serum-free (Fig. S4)
Experimental: (§2) Inhibition of endosomal acidification was achieved using inhibitors of V-ATPase, concanamycin A (100 ng/ml) and bafilomycin A1 (500 µM) (Sigma) or the ionophore monensin (1 µM) (Sigma). Clathrin-mediated endocytosis was inhibited with chlorpromazine (CPZ) (5 µM) (Sigma). Concentrations were chosen based on prior studies, [61]. All inhibitors were added 30 minutes prior to stimulation. For CPZ experiments, the media was replaced at the time of stimulation to remove CPZ.
(§3) Cells were collected at 6 hours post infection unless otherwise indicated. RNA was extracted using TRIzol (Invitrogen) following the manufacturer's instructions. RNA was resuspended in water containing RNaseOut (Invitrogen) and treated with DNaseI using the Turbo DNA-free kit (Ambion). cDNA was synthesized using the ImPromII kit (Promega) following the manufacturer's instructions. Quantification of cDNA was performed by quantitative RT-PCR (iCycler, BioRad) using the iQ SYBR Green Supermix (BioRad). Cycling parameters were 95°C for 15 minutes followed by 40 cycles of 95°C for 30 seconds, 60°C for 30 seconds, and 72°C for 30 seconds. Primers used to measure IL-6, TNF-α, and β-actin were published previously, [62]. Human integrin α3 primers, forward: 5′-[…]-3′, reverse 5′-[…]-3′ were generated by Primer Bank, ID# 6006011a1. […]

U937 macrophages [3] = assay: IL-6 secretion (ELISA) of U937 macrophages stimulated with B. burgdorferi; format: cell-based, human; conditions: for mean secretion of IL-6 by inhibitor-treated cells: B. burgdorferi MOI 10, 6 hours, serum-free, three experiments
Experimental: as §1
Clonal isolates of infectious, low passage B. burgdorferi sensu stricto (strain N40, clone D10E9) were cultured in Barbour-Stoenner-Kelley (BSK II) medium at 37°C as described, and used at multiplicity of infection (MOI) 10∶1.
as §2
For blocking antibody experiments, U937 macrophages were incubated for 2 hours prior to stimulation with 50 µg/ml of control mouse ascites fluid (NS-1 murine myeloma, Sigma-Aldrich) or anti-integrin α3β1 monoclonal antibody (P1B5, Millipore).
(§4) Supernatants were collected 6 hours post stimulation.

U937 macrophages [4] = assay: IL-6 transcript (qRT-PCR) in Pam3CSK4-stimulated U937 macrophages; format: cell-based, human; conditions: 1 µM monensin; 100 ng/ml Pam3CSK4, 6 hours, serum-free; normalized to β-actin (Fig. S2)
Experimental: as §2, §3

U937 macrophages [5] = assay: IFN-α1 transcript (qRT-PCR) in Pam3CSK4-stimulated U937 macrophages; format: cell-based, human; conditions: 100 ng/ml Pam3CSK4, serum-free; for reduction of IFN-α1 transcript levels: 100 ng/ml concanamycin A or 1 µM monensin, 6 and 16 hours, p = 0.037
Experimental: as §2
as §3, with “6006011a1. Human integrin αv primers, forward: 5′-[…]-3′, reverse 5′-[…]-3′ were generated by Primer Bank, ID# 4504763a2. Human integrin α5 primers, forward: 5′-[…]-3′, reverse 5′-[…]-3′ were generated by Primer Bank, ID# 4504751a3. Human integrin α6 primers, forward: 5′-TCGGCACAGCAACCTTGAA-3′, reverse 5′-[…]-3′ were generated by Primer Bank, ID# 30046796a2. Human TLR2 primers, forward: 5′-[…]-3′, reverse 5′- […]-3′. Human TLR4 primers, forward: 5′-[…]-3′, reverse 5′-[…]-3′ were generated by Primer Bank, ID# 19924149a1. Human TLR7 primers, forward: 5′-[…]-3′, reverse 5′-[…]-3′. Human TLR9 primers, forward: 5′-GCGACCAGGCTCCCGAAGG-3′, reverse 5′-[…]-3′. Human IFN-α1 primers, forward: 5′-[…]-3′, reverse: 5′-[…]-3′ were generated by Primer Bank, ID# 13128950a1 [63], [64].” for “6006011a1.”

U937 macrophages [6] = assay: TNF-α secretion (ELISA) of U937 macrophages stimulated with Pam3CSK4; format: cell-based, human; conditions: Fig S5A; 100 ng/ml concanamycin A or 1 µM monensin; 100 ng/ml Pam3CSK4, 6 hours, serum-free
Experimental: as §2, §4

U937 macrophages [7] = assay: IL-6 secretion of U937 macrophages stimulated with TNF-α (inhibitor control); format: cell-based, human; conditions: pre-treatment with inhibitor, stimulation with TNF-α; data not shown
Experimental: as §2, §4

[8] = test system: murine bone marrow derived macrophages; assay: IFN-β induction in murine bone marrow derived macrophages; format: cell-based; conditions: data not shown
U937 macrophages [9] = assay: IFN-β transcript (qRT-PCR) in Pam3CSK4-stimulated U937 macrophages; format: cell-based, human; conditions: 100 ng/ml Pam3CSK4, serum-free, 6 hrs or 16 hrs post stimulation
Experimental: as §3, with “6006011a1. Human integrin αv primers, forward: 5′-[…]-3′, reverse 5′-[…]-3′ were generated by Primer Bank, ID# 4504763a2. Human integrin α5 primers, forward: 5′-[…]-3′, reverse 5′-[…]-3′ were generated by Primer Bank, ID# 4504751a3. Human integrin α6 primers, forward: 5′-TCGGCACAGCAACCTTGAA-3′, reverse 5′-[…]-3′ were generated by Primer Bank, ID# 30046796a2. Human TLR2 primers, forward: 5′-[…]-3′, reverse 5′- […]-3′. Human TLR4 primers, forward: 5′-[…]-3′, reverse 5′-[…]-3′ were generated by Primer Bank, ID# 19924149a1. Human TLR7 primers, forward: 5′-[…]-3′, reverse 5′-[…]-3′.” for “6006011a1.”

[10] = Fig 5, serum-free, three experiments
[11] = 100 ng/ml concanamycin A, 500 µM bafilomycin A1, 1 µM monensin
[12] = Homo sapiens, U-937, 6 h, read-out: inhibition of B. burgdorferi induction of IL-6

Compound | decrease in Pam3CSK4-induced IL-6 secretion relative to control cells (U937 macrophages [1]; serum-free) | mean secretion of IL-6 by inhibitor-treated cells (U937 macrophages [1]; [10]) | mean secretion of IL-6 by inhibitor-treated cells (U937 macrophages [3]; [11]) | reduction of IFN-α1 transcript levels (U937 macrophages [5]) | mean secretion of TNF-α by inhibitor-treated cells (U937 macrophages [6]) | change in secretion of IL-6 in response to TNF-α (U937 macrophages [7]) | also measured
CC[C@@]1([C@@H]2O[C@@H]([C@H]3O[C@@](O)(CO)[C@H](C)C[C@@H]3C)C[C@@H]2C)CC[C@H]([C@]2(C)CC[C@]3(C[C@H](O)[C@@H](C)[C@@H]([C@@H](C)[C@@H](OC)[C@H](C)C(=O)O)O3)O2)O1 [monensin] | 38% | 420 pg/mL | 567 pg/mL | 88% | 567 pg/mL | decrease in IL-6 secretion | reduction of IL-6 transcript (U937 macrophages [2]): 51%; inhibition at 1 µM (U937 macrophages [3]; [12]): 40%; reduction of IL-6 transcript (U937 macrophages [4]): 32%
C/C=C/[C@H]1O[C@@](O)([C@@H](C)[C@H](O)[C@H](C)[C@H]2OC(=O)/C(OC)=C/C(C)=C/[C@@H](C)[C@@H](O)[C@@H](CC)[C@@H](O)[C@H](C)C/C(C)=C/C=C/[C@@H]2OC)C[C@@H](O[C@H]2C[C@@H](O)[C@H](OC(N)=O)[C@@H](C)O2)[C@@H]1C [concanamycin A] | 53% | 320 pg/mL | 437 pg/mL | 84% | 928 pg/mL | no significant change | inhibition of B. burgdorferi induction of IL-6 (U937 macrophages [3]; 100 ng/ml concanamycin A, 500 µM bafilomycin A1, 1 µM monensin, MOI 10, 6 hours, p = 0.037): 56%
CO/C1=C\C(C)=C\[C@@H](C)[C@@H](O)[C@@H](C)C/C(C)=C/C=C/[C@H](OC)[C@@H]([C@@H](C)[C@@H](O)[C@H](C)[C@@]2(O)C[C@@H](O)[C@H](C)[C@@H](C(C)C)O2)OC1=O [bafilomycin A1] | 37% | 430 pg/mL | 680 pg/mL |  |  | no significant change | inhibition at 500 µM (U937 macrophages [3]; [12]): 30%
CN(C)CCCN1c2ccccc2Sc2ccc(Cl)cc21 [CPZ, chlorpromazine] | 49% | 340 pg/mL |  |  |  |  | 
palmitoyl-3-Cys-Ser-(Lys)4 [Pam3CSK4, synthetic TLR2/1 triacylated lipid ligand, prototypical bacterial lipopeptide (Invivogen)] |  |  |  |  |  |  | mean secretion of IL-6 (U937 macrophages [1]; Fig 1A, cells transduced with control shRNA, serum-free, mean of three independent experiments): 350 pg/mL; mean secretion of IL-6 (U937 macrophages [1]; Fig 2A, in the presence of 1% FBS, three experiments): 975 pg/mL; mean secretion of IL-6 (U937 macrophages [1]; Fig 2A, serum-free, three experiments): 1,048 pg/ml; mean secretion of IL-6 (U937 macrophages [1]; Fig 2B, control shRNA cells, 1% FBS): 974 pg/mL; mean secretion of IL-6 (U937 macrophages [1]; Fig 2B, control shRNA cells, serum-free): 1,048 pg/ml; mean secretion of IL-6 (U937 macrophages [1]; Fig 5, control cells (no inhibitor), serum-free, three experiments): 670 pg/mL; induction of IFN-β [8]: confirm Pam3CSK4-induced IFN-β; induction of IFN-α1 (interferon response) (U937 macrophages [5]): induces an interferon response; induction of IFN-β (U937 macrophages [9]): did not observe any induction
